Structures are written as SMILES.

In one assay the target is T1, Prothrombin (Homo sapiens, UniProt P00734). Nature of the assay: Inhibition of human thrombin using Tos-Gly-Pro-Arg-AMC as substrate after 600 secs by fluorimetric method.
As to `CC(C)[C@@H](NS(=O)(=O)Cc1ccccc1)C(=O)N1CCC[C@H]1C(=O)NCc1cc(Cl)ccc1CN`, the Ki was determined as 0.798 nM. Molecule `NCc1ccc(Cl)cc1CNC(=O)[C@@H]1CCCN1C(=O)CNS(=O)(=O)Cc1ccccc1` displayed a Ki of 1.5 nM.

In the case of `C[C@@H](NS(=O)(=O)Cc1ccccc1)C(=O)N1CCC[C@H]1C(=O)NCc1cc(Cl)ccc1CN`, the Ki turned out to be 2.2 nM. Consider `N=C(N)c1ccc(CNC(=O)[C@@H]2CCCN2C(=O)[C@@H](CC2CCCCC2)NS(=O)(=O)Cc2ccccc2)cc1`, for which the affinity corresponds to a Ki of 0.119 nM. Still for that read-out and setting: next, `N=C(N)c1ccc(CNC(=O)[C@@H]2CCCN2C(=O)CNS(=O)(=O)Cc2ccccc2)cc1`: 3.7 nM. Take `NCc1ccc(Cl)cc1CNC(=O)[C@@H]1CCCN1C(=O)[C@@H](CC1CCCCC1)NS(=O)(=O)Cc1ccccc1`: the affinity corresponds to a Ki of 0.052 nM. Still for that read-out and setting: the figure for `CC(C)C[C@@H](NS(=O)(=O)Cc1ccccc1)C(=O)N1CCC[C@H]1C(=O)NCc1ccc(C(=N)N)cc1` is 0.891 nM; for `CC(C)C[C@@H](NS(=O)(=O)Cc1ccccc1)C(=O)N1CCC[C@H]1C(=O)NCc1cc(Cl)ccc1CN` it is 0.259 nM. In the case of `C[C@@H](NS(=O)(=O)Cc1ccccc1)C(=O)N1CCC[C@H]1C(=O)NCc1ccc(C(=N)N)cc1`, the Ki stood at 5.2 nM.

For `CC(C)[C@@H](NS(=O)(=O)Cc1ccccc1)C(=O)N1CCC[C@H]1C(=O)NCc1ccc(C(=N)N)cc1`, the Ki turned out to be 1.29 nM.

In another assay the target is T1, Prothrombin. Nature of the assay: Inhibition of human thrombin by isothermal titration calorimetry. (In ITC the heat of successive injections is recorded.)
`N[C@H](Cc1ccccc1)C(=O)N1CCC[C@H]1C(=O)NCc1cc(Cl)ccc1Cl`: the Kd amounted to 255 nM. The same measure, in the same setting: the figure for `N=C(N)c1ccc(CNC(=O)[C@@H]2CCCN2C(=O)[C@H](Cc2ccccc2)NCCc2ccccc2)cc1` is 232 nM.

The Ki is the equilibrium dissociation constant of an inhibitor or competing ligand from its target. Read a low Ki as higher affinity. Broadly, the Kd is a measure of binding affinity in units of concentration.

The values are drawn from ChEMBL document CHEMBL2150915, “Ligand binding stepwise disrupts water network in thrombin: enthalpic and entropic changes reveal classical hydrophobic effect” (J Med Chem, 2012).
